How the values were obtained:
Hepatitis B virus [1] = assay: Antiviral activity against HBV infected in human HepG2 2.2.15 cells assessed as inhibition of HBsAg secretion at 100 ug/mL after 9 days by ELISA; type: functional; details: HepG2, 216 h
Hepatitis B virus [2] = assay: Antiviral activity against HBV infected in human HepG2 2.2.15 cells assessed as inhibition of HBsAg secretion at 50 ug/mL after 9 days by ELISA; type: functional; details: HepG2, 216 h
Hepatitis B virus [3] = assay: Antiviral activity against HBV infected in human HepG2 2.2.15 cells assessed as inhibition of HBsAg secretion at 25 ug/mL after 9 days by ELISA; type: functional; details: HepG2, 216 h
Hepatitis B virus [4] = assay: Antiviral activity against HBV infected in human HepG2 2.2.15 cells assessed as inhibition of HBeAg secretion at 100 ug/mL after 9 days by ELISA; type: functional; details: HepG2, 216 h
Hepatitis B virus [5] = assay: Antiviral activity against HBV infected in human HepG2 2.2.15 cells assessed as inhibition of HBeAg secretion at 50 ug/mL after 9 days by ELISA; type: functional; details: HepG2, 216 h
Hepatitis B virus [6] = assay: Antiviral activity against HBV infected in human HepG2 2.2.15 cells assessed as inhibition of HBeAg secretion at 25 ug/mL after 9 days by ELISA; type: functional; details: HepG2, 216 h
[7] = Cytotoxicity of human HepG2(2.2.15) cells assessed as growth inhibition at 200 ug/mL by MTT assay; type: cell-based
[8] = Cytotoxicity of human HepG2(2.2.15) cells assessed as growth inhibition at 100 ug/mL by MTT assay; type: cell-based
Hepatitis B virus [9] = assay: Antiviral activity against HBV infected in human HepG2 2.2.15 cells assessed as inhibition of HBsAg secretion at 200 ug/mL after 9 days by ELISA; type: functional; details: HepG2, 216 h
Hepatitis B virus [10] = assay: Antiviral activity against HBV infected in human HepG2 2.2.15 cells assessed as inhibition of HBeAg secretion at 200 ug/mL after 9 days by ELISA; type: functional; details: HepG2, 216 h

SMILES	inhibition at 100 µg/mL (Hepatitis B virus [1]) [%]	inhibition at 50 µg/mL (Hepatitis B virus [2]) [%]	inhibition at 25 µg/mL (Hepatitis B virus [3]) [%]	inhibition at 100 µg/mL (Hepatitis B virus [4]) [%]	inhibition at 50 µg/mL (Hepatitis B virus [5]) [%]	inhibition at 25 µg/mL (Hepatitis B virus [6]) [%]	inhibition at 200 ug/mL [7] [%]	inhibition at 100 ug/mL [8] [%]	inhibition at 200 µg/mL (Hepatitis B virus [9]) [%]	inhibition at 200 µg/mL (Hepatitis B virus [10]) [%]
CC(=O)OCC1=CC[C@@H]2[C@H](C(C)(C)O)CC[C@@]2(C)CC1 (relative stereo) [SCHISANWILSONENE B]	58.6	20.5	5.6	0	0	0	≥ 25			
CC(C)(O)[C@@H]1CC[C@@]2(C)CCC(CO)=CC[C@H]12 (relative stereo) [SCHISANWILSONENE A]		76.5	27.5		28.9	11.3	≥ 25	≥ 25		
CC(C)(O)[C@@H]1CC[C@@]2(C)CCC(C=O)=CC[C@H]12 (relative stereo) [SCHISANWILSONENE C]	11.7	5.5	0	6.1	1.4	1.1			28.3	8.8
Nc1ccn([C@@H]2CS[C@H](CO)O2)c(=O)n1 [LAMIVUDINE]									28.6	34.8

Reference: ChEMBL document CHEMBL1151825, “Schisanwilsonenes A-C, anti-HBV Carotane sesquiterpenoids from the fruits of Schisandra wilsoniana” (J Nat Prod, 2009)
